Patent US6689811B2, “Method of using caffeic acid phenethyl ester and analogs thereof as radiation sensitizers” (Wake Forest University, priority 2001, dated 2004)

Key:
[1] = tested on: Akt phosphorylation (Akt-Pser473); experiment: Akt phosphorylation immunoblot in RKO cells treated with CAPE; format: cell-based
Description: RKO cells were treated with low serum (LS) (0.1%) for 12 h, or low serum for 12 h followed by replacement of media with 10% serum (LS+S), in the absence (EtOH) or presence of CAPE. Two different exposures (light, dark) of the immunoblot using the anti-phosphoAkt specific antibody are shown.
(§1) 35(9): p. 790; Giri, D. and M. Ittmann, Hum Pathol, 1999. 30(4): p. 419-24; Davies, M. A., et al., Cancer Res, 1999. 59(11): p. 2551-6). Since PTEN is mutated in PC-3 cells, Akt phosphorylation levels are elevated compared to normal prostatic cells, and therefore PC-3 cells are a good model to study the regulation of Akt by CAPE and propolis.
Since Akt phosphorylation levels reflect a balance between active phosphorylation (mainly by PI-3 kinase) and dephosphorylation (by a yet unidentified phosphatase), the decrease in Akt phosphorylation could be an activation of a phosphatase rather than inhibition of a kinase. […] Thus, we performed CAPE treatments in the presence of high (10%) and low (0.1%) serum levels.

[2] = tested on: Akt phosphorylation (Akt-Pser473); experiment: Akt phosphorylation immunoblot in PC-3 cells treated with CAPE; format: cell-based
Text: as §1

RKO cells = experiment: Clonogenic survival assay with CAPE and ionizing radiation, RKO cells; format: cell-based
Description: (§2) FIGS. 2A-B are graphs illustrating that CAPE sensitizes colorectal carcinoma cells RKO (A) and HT-29 cells (B) to treatments with IR. RKO (A) and HT-29 (B) cells were treated with CAPE (5 μg/ml) for the indicated times, irradiated and plated for clonogenic survival assays. CAPE treatment alone induced 10-20% reduction in clonogenic survival. Results are normalized to account for this reduction. We have also tested the ability of CAPE to sensitize cells to the cytotoxic effects of ionizing radiation. […] The Dose-enhancement ratio (DER) values at survival fraction (SF) 0.1 for pretreatment with CAPE for 24 h were 1.81 for RKO cells and a 1.68 for HT-29 cells. The radiosensitizing effect of CAPE was even more pronounced in vivo.

HT-29 cells = experiment: Clonogenic survival assay with CAPE and ionizing radiation, HT-29 cells; format: cell-based
Description: as §2

HT-29 xenograft tumors = experiment: HT-29 tumor xenografts on the flanks of nude mice, CAPE with or without IR; format: in vivo
Description: FIG. 3 is a photograph showing representative animals where CAPE radiosensitizes HT-29 xenograft tumors to IR. HT-29 cells were grown as tumor xenografts on the flanks of nude mice. When the tumors reached approximately 80 mm^3, one group of mice was treated with 0.5 ml of ethanol (EtOH) (0.1%) while the other group was treated with a single injection of CAPE (100 μg/kg). Twenty-four hours later, the tumors on the left flanks were given a single dose of IR (5 Gy). The animals were returned to their cages and tumor measurements were taken every 7 days for the following 4 weeks. The animal on the left was treated with ethanol (EtOH) (the carrier for CAPE), while the animal on the right was treated with 50 mg/kg CAPE. The tumors on the left side of the animal (right side of the picture) was treated with ionizing radiation (IR) (5Gy). Pictures were taken 4 weeks following IR. FIG. 4 is graphical representation of results from all tumors. Control (N=7), CAPE (N=5), IR (N=6) and CAPE +IR (N=4). Error bars represent ±S.E.M. The different number of tumors measured reflects the failure of some of the tumors to grow during the first week prior to treatment. FIG. 5 is a bar graph illustrating the number of days required for a tumor to triple in volume. […] FIG. 4 illustrates that tumors treated with both CAPE and IR were reduced in size by approximately 90% 4 weeks after treatment.

[3] = tested on: colorectal carcinoma cells; experiment: Survival fraction of colorectal carcinoma cells, oxaliplatin versus CAPE and oxaliplatin; format: cell-based; details: regimen of CAPE and oxaliplatin compared to oxaliplatin alone (FIG. 6)
Text: FIG. 6 is a graph depicting the survival fraction of colorectal carcinoma cells when the cells are given a regimen of oxaliplatin as compared to a regimen of CAPE and oxaliplatin. As stated above, CAPE may be combined with other cancer therapies. One such therapy includes the use of oxaliplatin. Oxaliplatin is a chemotherapy drug, and also an antineoplastic agent, that is generally used in late-stage clinical development for colorectal cancer. Oxaliplatin is a platinum chemotherapy drug, similar to cisplatin and carboplatin. At the center of the drug molecule is an atom of platinum. Oxaliplatin is generally a clear liquid that is given through a drip into a vein (intravenous infusion). The infusion usually takes about 2 hours. Oxaliplatin can be given every 2 weeks or every 3 weeks as a course of treatment.

[4] = immunoblot with anti-Akt antibody (FIG. 1A)
[5] = increasing doses of CAPE, immunoblot (FIG. 1A)
[6] = pretreatment with CAPE for 24 h (5 μg/ml), then IR

O=C(/C=C/c1ccc(O)c(O)c1)OCCc1ccccc1 [CAPE, caffeic acid phenethyl ester]
levels of Akt (anti-Akt antibody) [1, 4]: remain unchanged | levels of Akt phosphorylation (Akt-Pser473) [1, 5]: reduces the levels of Akt phosphorylation | rephosphorylation of Akt when serum was added back ([1]; low serum 12 h then 10% serum, in presence of CAPE (FIG. 1B)): did not inhibit rephosphorylation of Akt | Akt phosphorylation with CAPE in low serum ([1]; low serum (0.1%) for 12 h plus CAPE (FIG. 1B)): undetectable levels | levels of Akt (anti-Akt antibody) [2, 4]: remain unchanged | levels of Akt phosphorylation (Akt-Pser473) [2, 5]: reduces the levels of Akt phosphorylation | reduction in clonogenic survival by CAPE treatment alone (RKO cells; CAPE 5 μg/ml, no IR): 10-20% | sensitization to IR treatments (RKO cells; pretreatment with CAPE for 12 h or 24 h (FIG. 2A)): significant sensitization | Dose-enhancement ratio (DER) at survival fraction (SF) 0.1 (RKO cells; [6]): 1.81 | reduction in clonogenic survival by CAPE treatment alone (HT-29 cells; CAPE 5 μg/ml, no IR): 10-20% | sensitization to IR treatments (HT-29 cells; pretreatment with CAPE for 12 h or 24 h (FIG. 2B)): significant sensitization | Dose-enhancement ratio (DER) at survival fraction (SF) 0.1 (HT-29 cells; [6]): 1.68 | number of days required for tumor to triple in volume, CAPE plus IR (HT-29 xenograft tumors; CAPE combined with IR (FIG. 5)): failed to triple in volume | effect on tumor growth, CAPE alone (HT-29 xenograft tumors; single dose (50 mg/kg) CAPE, no IR, HT-29 xenografts in nude mice): minimal effect on tumor growth | reduction in tumor size, CAPE and IR (HT-29 xenograft tumors; single injection of CAPE, IR 5 Gy 24 h later, 4 weeks after treatment (FIG. 4)): approximately 90% | survival fraction of cancerous cells, CAPE plus oxaliplatin [3]: decrease in the survival fraction
